Test results from US11566007B2, “Ras inhibitors” (Revolution Medicines, Inc., priority 2019, dated 2023).
Values joined by “and” are separate entries in the source; they are usually repeats but may differ in a detail not shown here. Identical values can stand only once. Like-named read-outs stand apart in the source and are kept apart here.

Legend:
[1] = test system: NCI-H358 cells (K-Ras G12C); experiment: Potency assay: pERK in NCI-H358 cells; type: cell-based, human; conditions: Homo sapiens, NCI-H358; H358 KRAS G12C; read-out: pERK EC50
Outline: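 pERK decrease read by AlphaLISA SureFire p-ERK1/2 or In-Cell Western after 4 h compound exposure at 37 °C, 5% CO2.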

NCI-H358 (K-Ras G12C) = experiment: CellTiter-Glo cell viability assay, NCI-H358; type: cell-based, human; conditions: NCI-H358, 5-day treatment, class symbols, read-out: Additional H358 Cell Viability assay data (K-Ras G12C, IC50)
Outline: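 Cells seeded, compound added directly, 5-day exposure. Plates to RT ~30 min, CellTiter-Glo luminescence read. Normalized to DMSO avg (x100); 4-parameter logistic fit.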

K-Ras G12C = K-Ras G12C (Homo sapiens (Human), UniProt P01116+P62937, G12C); experiment: Ras-Raf (BRAF RBD) disruption / FRET / MOA assay, KRAS G12C; type: biochemical; conditions: KRAS G12C; Ras-Raf disruption/FRET/MOA assay; read-out: IC50* KRAS G12C FRET data
K-Ras G12C, sequence (P01116-2 other isoform, or with tags, fused parts or gaps G12C): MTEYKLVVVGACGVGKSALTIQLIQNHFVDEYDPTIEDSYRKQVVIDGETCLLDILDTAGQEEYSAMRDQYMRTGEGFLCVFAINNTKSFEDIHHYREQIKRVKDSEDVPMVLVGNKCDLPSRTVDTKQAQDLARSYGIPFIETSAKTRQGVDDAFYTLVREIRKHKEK
K-Ras G12C, sequence (P62937 whole entry): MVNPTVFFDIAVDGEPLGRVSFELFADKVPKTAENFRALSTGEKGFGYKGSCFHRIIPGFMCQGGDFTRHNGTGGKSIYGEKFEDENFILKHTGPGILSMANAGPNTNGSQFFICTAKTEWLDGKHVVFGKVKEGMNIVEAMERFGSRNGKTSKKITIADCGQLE
Outline: (§1)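 A 10-point, 3-fold dilution series topping at 30 μM final was incubated 3 h at 25° C with the Ras/cyclophilin A/BRAF RBD mixture.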

K-Ras G13C = K-Ras G13C (Homo sapiens (Human), UniProt P01116+P62937, G13C); experiment: Ras-Raf (BRAF RBD) disruption / FRET / MOA assay, KRAS G13C; type: biochemical; conditions: KRAS G13C; Ras-Raf disruption/FRET/MOA assay; read-out: IC50* KRAS G13C FRET data
K-Ras G13C, sequence (P01116-2 other isoform, or with tags, fused parts or gaps G13C): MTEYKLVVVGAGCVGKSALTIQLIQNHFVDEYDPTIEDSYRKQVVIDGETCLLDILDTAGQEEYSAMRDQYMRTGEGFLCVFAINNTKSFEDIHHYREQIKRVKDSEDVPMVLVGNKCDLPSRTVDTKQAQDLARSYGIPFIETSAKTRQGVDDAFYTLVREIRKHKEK
K-Ras G13C, sequence (P62937 whole entry): as the sequence (P62937 whole entry) above
Outline: as §1

KRAS G12S = KRAS G12S (Homo sapiens (Human), UniProt P01116+P62937, G12S); experiment: Ras-Raf (BRAF RBD) disruption / FRET / MOA assay, KRAS G12S; type: biochemical; conditions: Ras-Raf disruption/FRET/MOA assay; class symbols; read-out: KRAS G12S FRET data IC50
KRAS G12S, sequence (P01116-2 other isoform, or with tags, fused parts or gaps G12S): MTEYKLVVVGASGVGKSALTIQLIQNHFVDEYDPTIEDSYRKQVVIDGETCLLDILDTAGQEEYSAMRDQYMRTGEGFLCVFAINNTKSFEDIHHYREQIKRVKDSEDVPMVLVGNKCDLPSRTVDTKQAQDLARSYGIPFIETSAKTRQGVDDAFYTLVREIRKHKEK
KRAS G12S, sequence (P62937 whole entry): as the sequence (P62937 whole entry) above
Outline: as §1

KRAS G12D = KRAS G12D (Homo sapiens (Human), UniProt P01116+P62937, G12D); experiment: Ras-Raf (BRAF RBD) disruption / FRET / MOA assay, KRAS G12D; type: biochemical; conditions: Ras-Raf disruption/FRET/MOA assay; class symbols; read-out: KRAS G12D FRET data IC50
KRAS G12D, sequence (P01116-2 other isoform, or with tags, fused parts or gaps G12D): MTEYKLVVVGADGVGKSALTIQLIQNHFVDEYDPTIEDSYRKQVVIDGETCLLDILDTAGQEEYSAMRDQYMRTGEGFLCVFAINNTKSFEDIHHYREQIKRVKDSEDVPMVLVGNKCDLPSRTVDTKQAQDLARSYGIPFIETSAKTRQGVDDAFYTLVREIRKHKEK
KRAS G12D, sequence (P62937 whole entry): as the sequence (P62937 whole entry) above
Outline: as §1

KRAS G12V = KRAS G12V (Homo sapiens (Human), UniProt P01116+P62937, G12V); experiment: Ras-Raf (BRAF RBD) disruption / FRET / MOA assay, KRAS G12V; type: biochemical; conditions: read-out: IC50* KRAS G12V FRET data
KRAS G12V, sequence (P01116-2 other isoform, or with tags, fused parts or gaps G12V): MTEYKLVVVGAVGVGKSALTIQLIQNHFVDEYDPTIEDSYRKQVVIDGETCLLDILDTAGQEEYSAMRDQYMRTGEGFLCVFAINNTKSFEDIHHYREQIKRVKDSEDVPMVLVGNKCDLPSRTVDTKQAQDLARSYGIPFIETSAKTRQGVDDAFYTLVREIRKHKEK
KRAS G12V, sequence (P62937 whole entry): as the sequence (P62937 whole entry) above
Outline: as §1

KRAS WT = KRAS WT (Homo sapiens (Human), UniProt P01116+P62937); experiment: Ras-Raf (BRAF RBD) disruption / FRET / MOA assay, KRAS WT; type: biochemical; conditions: read-out: IC50* KRAS WT FRET data
KRAS WT, sequence (P01116-2 other isoform, or with tags, fused parts or gaps): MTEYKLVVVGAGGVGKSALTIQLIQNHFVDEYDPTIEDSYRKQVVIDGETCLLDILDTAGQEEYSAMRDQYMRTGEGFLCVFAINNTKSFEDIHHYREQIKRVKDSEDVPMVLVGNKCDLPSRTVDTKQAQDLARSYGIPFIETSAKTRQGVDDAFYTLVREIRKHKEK
KRAS WT, sequence (P62937 whole entry): as the sequence (P62937 whole entry) above
Outline: as §1

KRAS G13D = KRAS G13D (Homo sapiens (Human), UniProt P01116+P62937, G13D); experiment: Ras-Raf (BRAF RBD) disruption / FRET / MOA assay, KRAS G13D; type: biochemical; conditions: read-out: IC50* KRAS G13D FRET data
KRAS G13D, sequence (P01116-2 other isoform, or with tags, fused parts or gaps G13D): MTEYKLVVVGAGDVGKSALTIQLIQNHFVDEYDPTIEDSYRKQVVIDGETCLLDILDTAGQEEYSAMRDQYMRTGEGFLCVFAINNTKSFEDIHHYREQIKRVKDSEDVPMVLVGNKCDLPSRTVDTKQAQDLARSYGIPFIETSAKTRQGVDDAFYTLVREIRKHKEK
KRAS G13D, sequence (P62937 whole entry): as the sequence (P62937 whole entry) above
Outline: as §1

NRAS G12C = NRAS G12C (Homo sapiens (Human), UniProt P01111+P62937, G12C); experiment: Ras-Raf (BRAF RBD) disruption / FRET / MOA assay, NRAS G12C; type: biochemical; conditions: read-out: IC50* NRAS G12C FRET data
NRAS G12C, sequence (P01111 whole entry G12C): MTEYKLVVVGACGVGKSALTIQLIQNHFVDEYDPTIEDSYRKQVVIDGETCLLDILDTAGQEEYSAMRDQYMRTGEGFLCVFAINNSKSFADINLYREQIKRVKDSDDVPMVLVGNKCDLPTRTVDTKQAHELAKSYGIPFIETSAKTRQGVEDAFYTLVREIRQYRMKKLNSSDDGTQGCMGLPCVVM
NRAS G12C, sequence (P62937 whole entry): as the sequence (P62937 whole entry) above
Outline: as §1

| SMILES | EC50 [1] [µM] | IC50 (NCI-H358 (K-Ras G12C); Homo sapiens, NCI-H358, 120 h) [µM] | IC50 (K-Ras G12C) | IC50 (K-Ras G13C) | IC50 (KRAS G12S) | IC50 (KRAS G12D) | IC50 (KRAS G12V) | IC50 (KRAS WT) | IC50 (KRAS G13D) | IC50 (NRAS G12C) | IC50 (NCI-H358 (K-Ras G12C)) [µM] |
| --- | --- | --- | --- | --- | --- | --- | --- | --- | --- | --- | --- |
| CCn1c(-c2cccnc2[C@H](C)OC)c2c3cc(ccc31)-c1cccc(c1)C[C@H](NC(=O)[C@H](C(C)C)N(C)C(=O)[C@H]1CCN(C(=O)C#CCN(C)C)C1)C(=O)N1CCC[C@H](N1)C(=O)OCC(C)(C)C2 (atropisomer, axis not shown) [Example A121] | < 5 | 0.01 to 0.1 | 0.01 to 0.1 µM and < 0.01 µM | 0.01 to 0.1 µM and 1 to 10 µM | 1 to 10 µM and > 10 µM | 1 to 10 µM | 1 to 10 µM and > 10 µM | 1 to 10 µM and > 10 µM | 1 to 10 µM | 0.01 to 0.1 µM and < 0.01 µM | – |
| C=CS(=O)(=O)N1CC[C@H](C(=O)N(C)[C@H](C(=O)N[C@H]2Cc3cccc(c3)-c3ccc4c(c3)c(c(-c3cccnc3[C@H](C)OC)n4CC)CC(C)(C)COC(=O)[C@@H]3CCCN(N3)C2=O)C(C)C)C1 (atropisomer, axis not shown) [Example A124] | < 5 | 0.01 to 0.1 | 0.01 to 0.1 µM and 1 to 10 µM | 0.01 to 0.1 µM and 1 to 10 µM | 1 to 10 µM and > 10 µM | > 10 µM | 1 to 10 µM and > 10 µM | 1 to 10 µM and > 10 µM | > 10 µM | 0.01 to 0.1 µM and 1 to 10 µM | – |
| CCn1c(-c2cccnc2[C@H](C)OC)c2c3cc(ccc31)-c1cc(O)cc(c1)C[C@H](NC(=O)[C@H](C(C)C)N(C)C(=O)[C@H]1CCN(C(=O)C#CCN(C)C)C1)C(=O)N1CCC[C@H](N1)C(=O)OCC(C)(C)C2 (atropisomer, axis not shown) [Example A131] | < 5 | < 0.01 | < 0.01 µM | 0.01 to 0.1 µM and < 0.01 µM | 0.1 to 1 µM and 1 to 10 µM | 1 to 10 µM and 0.1 to 1 µM | 0.1 to 1 µM and 1 to 10 µM | 0.1 to 1 µM and 1 to 10 µM | 0.1 to 1 µM and 1 to 10 µM | < 0.01 µM | – |
| C=CS(=O)(=O)N1CC[C@H](C(=O)N(C)[C@H](C(=O)N[C@H]2Cc3cc(O)cc(c3)-c3ccc4c(c3)c(c(-c3cccnc3[C@H](C)OC)n4CC)CC(C)(C)COC(=O)[C@@H]3CCCN(N3)C2=O)C(C)C)C1 (atropisomer, axis not shown) [Example A132] | < 5 | 0.01 to 0.1 | 0.01 to 0.1 µM and < 0.01 µM | 0.01 to 0.1 µM and < 0.01 µM | 0.1 to 1 µM and 1 to 10 µM | 1 to 10 µM and > 10 µM | 1 to 10 µM and 0.01 to 0.1 µM | 1 to 10 µM and 0.01 to 0.1 µM | 0.1 to 1 µM and 1 to 10 µM | 0.01 to 0.1 µM and < 0.01 µM | – |
| CCn1c(-c2cccnc2COC)c2c3cc(ccc31)-c1cc(O)cc(c1)C[C@H](NC(=O)[C@H](C(C)C)N(C)C(=O)[C@H]1CCN(C(=O)C#CCOC)C1)C(=O)N1CCC[C@H](N1)C(=O)OCC(C)(C)C2 (atropisomer, axis not shown) [Example A135] | < 5 | 0.01 to 0.1 | 0.01 to 0.1 µM and < 0.01 µM | 0.01 to 0.1 µM and 0.1 to 1 µM | 0.1 to 1 µM and 1 to 10 µM | 1 to 10 µM and > 10 µM | 0.1 to 1 µM and 1 to 10 µM | 1 to 10 µM and > 10 µM | 1 to 10 µM and > 10 µM | 0.01 to 0.1 µM and < 0.01 µM | – |
| CCn1c(-c2cccnc2COC)c2c3cc(ccc31)-c1cccc(c1)C[C@H](NC(=O)[C@H](C(C)C)N(C)C(=O)[C@H]1CCN(C(=O)C#CCN(C)C)C1)C(=O)N1CCC[C@H](N1)C(=O)OCC(C)(C)C2 (atropisomer, axis not shown) [Example A138] | < 5 | < 0.01 | 0.01 to 0.1 µM | 0.1 to 1 µM | > 10 µM | 1 to 10 µM | 1 to 10 µM | 1 to 10 µM | 1 to 10 µM | 0.01 to 0.1 µM | – |
| CCn1c(-c2cncnc2C(C)C)c2c3cc(ccc31)-c1cc(O)cc(c1)C[C@H](NC(=O)[C@H](C(C)C)N(C)C(=O)[C@H]1CCN(C(=O)C#CCN(C)C)C1)C(=O)N1CCC[C@H](N1)C(=O)OCC(C)(C)C2 (atropisomer, axis not shown) [Example A155] | < 5 | 0.01 to 0.1 | 0.01 to 0.1 µM | 0.01 to 0.1 µM and < 0.01 µM | 1 to 10 µM and 0.01 to 0.1 µM | 1 to 10 µM and 0.1 to 1 µM | 0.1 to 1 µM and 0.01 to 0.1 µM | 1 to 10 µM and 0.01 to 0.1 µM | 1 to 10 µM and 0.01 to 0.1 µM | 0.01 to 0.1 µM and < 0.01 µM | < 0.01 |
